One compound from patent US7691416B2, “Methods of treating vascular disease” (priority 2002, dated 2010) can be followed below.

One series deals with rat SMC. Put plainly: SMC proliferation, cell counts. Type of series: cell-based. The source says:
(§1) Animals. Male (250-350 g) Brown Norway rats (RT1^n) were used as aortic graft donors and male (250-350 g) Lewis rats (RT11) as recipients. Dawley (400-450 g) rats were used in the balloon injury model. Adult male C57BL/6, C57/S129, p21^−/− and p53^−/− null mice were purchased from Jackson Laboratory (Bar Harbor, Me.). mkk3^(−/−) null mice were generated as described Lu et al. (EMBO. 18:1845-1857 (1999)). The inos^−/− and enos^−/− mice were bred at the University of Pittsburgh. Aortic transplant model. Aortic transplantation was performed as described in Shimizu et al. (Nat. Med. 7:738-741 (2001)). Briefly, 3 to 4 cm of descending aorta was harvested from the donor and implanted between the renal arteries and the aortic bifurcation of the recipient. Both edges of the native abdominal aorta were ligated. Balloon injury model. Balloon angioplasty was carried out as described in Murakami et al. (Atherosclerosis 157:361-368 (2001)). […] [^3H]thymidine incorporation was measured by scintillation spectroscopy and presented as mean counts/min/well. […] Areas from eight to ten captured images were calculated using digital imaging software as number of pixels corresponding to those areas. Twenty-four to forty-eight sections from each group were statistically analyzed with SPSS software version 10. […]

The subject of the next series is rat aortic SMC. Put plainly: Flow cytometry cell cycle analysis. To be noted: CO 250 ppm, 24 hours. Type of series: cell-based.
Text: as §1
A general note: Flow cytometry measures light scatter and fluorescence of single cells or particles in a stream.

Another series concerns SMC. Put plainly: Trypan blue and propidium iodide exclusion analyses. Type of series: cell-based. To be noted: SMC exposed to CO.
Text: as §1

A further series relates to p21Cip1. Put plainly: Western blot of p21Cip1 expression. Type of series: cell-based, mouse. The source says: (§2) Animals. Male (250-350 g) Brown Norway rats (RT1^n) were used as aortic graft donors and male (250-350 g) Lewis rats (RT11) as recipients. Dawley (400-450 g) rats were used in the balloon injury model. Adult male C57BL/6, C57/S129, p21^−/− and p53^−/− null mice were purchased from Jackson Laboratory (Bar Harbor, Me.). mkk3^(−/−) null mice were generated as described Lu et al. (EMBO. 18:1845-1857 (1999)). The inos^−/− and enos^−/− mice were bred at the University of Pittsburgh. Aortic transplant model. Aortic transplantation was performed as described in Shimizu et al. (Nat. Med. 7:738-741 (2001)). Briefly, 3 to 4 cm of descending aorta was harvested from the donor and implanted between the renal arteries and the aortic bifurcation of the recipient. Both edges of the native abdominal aorta were ligated. Balloon injury model. Balloon angioplasty was carried out as described in Murakami et al. (Atherosclerosis 157:361-368 (2001)). Briefly, a 2 Fr. arterial embolectomy catheter (Baxter, Chicago, Ill.) was inserted into the common carotid artery, and injury was created by inflating the balloon to 5 atmospheres of pressure for 5 minutes. The arteries were flushed and the external carotid artery was ligated, ensuring return of blood flow through the common and internal carotid arteries. Injury of the vessel wall and subsequent pathological analysis was made in a manner that was blinded to the treatment group. CO exposure. CO was delivered to animals as described in Otterbein et al. (Nat. Med. 6:422-428 (2000)). Graft donors and recipients were exposed to CO (250 ppm) for two days before transplantation and for 56 days immediately following transplantation. In the balloon injury model, rats received either no pretreatment or were exposed to CO (250 ppm) for one hour prior to injury. Following surgery rats were housed in room air for two weeks. Cells. Primary mouse and rat smooth muscle cells (SMC) were isolated and cultured as described in Laubach et al. (Proc Natl Acad Sci USA 92:10688-9 (1995)). Mouse SMC isolated from HO-1^−/− mice were obtained as described in Duckers et al. (Nat. Med. 7:693-698 (2001)). Cell treatment and reagents. Guanylate cyclase inhibitor 1H(1,2,4) oxadiazolo(4,3-a)quinoxalin-1 (ODQ; Calbiochem-Novabiochem, San Diego, Calif.; 10-100 μM) and p38 MAPK inhibitor pyridinyl imidazol SB203580 (Calbiochem; 5-20 μM) were dissolved in DMSO. The cGMP analogue 8-bromo-cGMP sodium salt (8-Br-cGMP; Sigma-Aldrich, St. Louis, Mo.; 10-100 μM) and the PKG inhibitor (10-100 μM; Alexis Biochemicals) were dissolved in water. Cell counts and [^3H] thymidine incorporation. Rat and mouse SMC were isolated and cultured as described in Peyton et al. (Blood 99:4443-4448 (2002)). Proliferation assays were carried out as described in Petkova et al. (J Biol. Chem. 276:7932-7936 (2001)). For [^3H] thymidine incorporation studies, cells were serum-starved overnight and then stimulated with 10% serum containing 5 μCi/ml [^3H] thymidine (New England Nuclear, Boston Mass.). [^3H]thymidine incorporation was measured by scintillation spectroscopy and presented as mean counts/min/well. Histomorphometric analysis. Aortic grafts and carotid arteries were harvested at 56 and 14 days respectively. Vessels were fixed, embedded, and serially sectioned (5μ) in toto. Every third slide was stained with Hematoxylin and Eosin (H&E) for histomorphometric analyses. In both models, one or two images per slide at a resolution of 1520×1080 pixels were captured at a magnification of 25× with a Zeiss microscope (Axioskop, Iowa City, Iowa), RT color SPOT (Diagnostic Instrument, Inc., Saint Joseph, Mich.) and Windows NT (Compaq Computer) using Adobe Photoshop version 5.5 software. Areas from eight to ten captured images were calculated using digital imaging software as number of pixels corresponding to those areas. Twenty-four to forty-eight sections from each group were statistically analyzed with SPSS software version 10. Immunostaining and cell population histomorphometric analysis. […]
Background: In western blotting, separated proteins are transferred to a membrane and probed.

The subject of another series is cGMP. Put plainly: cGMP immunoassay (EIA) of SMC lysates. Type of series: cell-based, mouse. To be noted: CO 250 ppm for 8 h or 16 h.
Text: as §1

In another series the test system is p38 MAPK. Put plainly: Western blot of phosphorylated p38 MAPK in SMC. Type of series: cell-based, mouse.
Text: as §2, with “The cGMP analogue 8-bromo-cGMP sodium salt (8-Br-cGMP; Sigma-Aldrich, St. Louis, Mo.; 10-100 μM) and the PKG inhibitor (10-100 μM; Alexis Biochemicals) were dissolved in water. Cell counts and [^3H] thymidine incorporation. Rat and mouse SMC were isolated and cultured as described in Peyton et al. (Blood 99:4443-4448 (2002)). Proliferation assays were carried out as described in Petkova et al. (J Biol. Chem. 276:7932-7936 (2001)). For [^3H] thymidine incorporation studies, cells were serum-starved overnight and then stimulated with 10% serum containing 5 μCi/ml [^3H] thymidine (New England Nuclear, Boston Mass.).” left out, “Histomorphometric analysis. Aortic grafts and carotid arteries were harvested at 56 and 14 days respectively. Vessels were fixed, embedded, and serially sectioned (5μ) in toto. Every third slide was stained with Hematoxylin and Eosin (H&E) for histomorphometric analyses. In both models, one or two images per slide at a resolution of 1520×1080 pixels were captured at a magnification of 25× with a Zeiss microscope (Axioskop, Iowa City, Iowa), RT color SPOT (Diagnostic Instrument, Inc., Saint Joseph, Mich.) and Windows NT (Compaq Computer) using Adobe Photoshop version 5.5 software.” left out, “10.” for “10. Immunostaining and cell population histomorphometric analysis.”

A further series concerns ATF-2. Put plainly: Western blot of phosphorylated ATF-2 in SMC. Type of series: cell-based. Conditions: SMC exposed to CO (250 ppm).
Text: as §1

In the next series the test system is ERK-1 and -2. Put plainly: Western blot of phosphorylated ERK in SMC. To be noted: SMC exposed to CO (250 ppm). Type of series: cell-based.
Text: as §1

A further series deals with JNK-1 and -2. Put plainly: Western blot of phosphorylated JNK in SMC. Type of series: cell-based. Conditions: SMC exposed to CO (250 ppm).
Text: as §1

Another series concerns iNOS and eNOS. Put plainly: Western blot of NOS isoforms in SMC. Type of series: cell-based, mouse. Conditions: CO 250 or 10,000 ppm, varying amounts of time.
Text: as §1

Series [1] concerns PAI-1. Put plainly: Western blot of PAI-1 in SMC. To be noted: CO 250 ppm, 24 or 48 hours. Type of series: cell-based.
Text: as §1

In series [2] the test system is PAI-1. Put plainly: PAI-1 protein in transplanted aortas (immunohistology and Western blot). Type of series: in vivo, rat. Conditions: 56 days after transplantation.
Text: as §1

Entries after “also recorded” stand apart in the source; their conditions may differ.

With `[C-]#[O+]` [CO, carbon monoxide], the “Reversibility of the anti-proliferative effect” value in the series with rat SMC (cessation of CO exposure (250 ppm) on day 6) was “reversible”. The SMC proliferation result in the series on rat SMC (exposure to CO (1000 ppm, FIG. 4B)) is “suppressed”. Also, the Cell cycle distribution entry with rat aortic SMC was “accumulated in the G0/G1 phase”. Besides, in the series on SMC, the “Cell death accompanying inhibition of SMC proliferation” value is “not associated with cell death”. The “Time of maximal p21Cip1 expression after CO exposure” value in the series with p21Cip1 (CO 250 ppm, increased by 4 hours, basal at 24 hours) turned out to be 16 h. Moreover, the p21Cip1 protein expression entry with p21Cip1 (SMC exposed to CO (250 ppm)) was “up-regulated”. Also, the “Intracellular cGMP levels” value in the series with cGMP was “increased”. In addition, the “Time of peak p38 MAPK phosphorylation/activation after exposure” value in the series with p38 MAPK (CO 250 ppm) is given as “four”. The “p38 MAPK phosphorylation/activation” value with p38 MAPK (SMC exposed to CO (250 ppm)) was “activated”. Further, the ATF-2 activation result in the series with ATF-2 is “activation”. The “Activation of ERK-1 and -2” value in the series with ERK-1 and -2 is given as “did not modulate”. The “Activation of JNK-1 and -2” value in the series with JNK-1 and -2 was “induced activation”. Besides, the “Induction of NOS isoforms” value in the series with iNOS and eNOS is listed as “no induction”. Also, the PAI-1 protein result with PAI-1 [1] is recorded as “slightly increased”. Further, in the series on PAI-1 [2], the “PAI-1 protein expression versus allogeneic aortas transplanted in the absence of CO” value is “similar; also recorded: No decrease”.
